Experimental data published in patent US9340577B2, “HLA binding motifs and peptides and their uses” (priority 1992, dated 2016).
Residues, ends and D or L forms follow the SMILES beside them. No end group written: not given here.

What was measured:
Experiment in all cases: biochemical
Assay type in all cases: binding
HLA-A11 (A*1101) = HLA-A11 (A*1101) (Homo sapiens, UniProt P04439, A114D/D185E/E176A/F33Y/L180Q/S129P/T187R); set-up: A11: unit not given here
HLA-A3.2 (A*0301) = HLA-A3.2 (A*0301) (Homo sapiens, UniProt P04439); conditions: for A*0301 binding: Table 11, binding value, no unit; for A3.2: Table 164, MAGE peptides, binding value to HLA-A3.2, no unit given
A*3301 = A*3301 (Homo sapiens, UniProt P04439, A270S/D185E/E176V/E277Q/E87N/F33T/G231S/H175R/I121M/I218V/I322F/K168Q/K210R/L300P/L318F/M331R/P217A/Q86R/Q94H/R138Q/T323A/T345S/T97I/V358M/Y195H)
A31 (A*3101) = A31 (A*3101) (Homo sapiens, UniProt P04439, A270S/D185E/E176V/E277Q/F33T/G231S/G80R/H175R/I121M/I218V/I322F/K168Q/L300P/L318F/M331R/P217A/Q94H/R138Q/T323A/T345S/T97I/V358M)
HLA-A*0201 (HLA-A2.1) = HLA-A*0201 (HLA-A2.1) (Homo sapiens, UniProt P04439, D140Y/D185E/D98H/E176V/E277Q/G131W/G231S/I119V/I121R/I166T/I218V/L300P/L318F/N151K/N90K/P208A/P217A/Q86G/Q94H/R138H/R169H/T345S)
A*6801 = A*6801 (Homo sapiens, UniProt P04439, A269V/D185E/E176V/E277Q/E87N/F33Y/G231S/I121M/I166T/I218V/L180W/L300P/L318F/N151K/P208A/P217A/Q86R/R169H/T345S)

Compound | IC50 (HLA-A11 (A*1101)) | IC50 (A*3301) | IC50 (A31 (A*3101)) | IC50 (HLA-A3.2 (A*0301)) | also measured
34.0050 (RVCACPGR) [Peptide 34.0050] | – | – | – | – | A*1101 binding (HLA-A11 (A*1101)): 0.0490; A*0301 binding (HLA-A3.2 (A*0301)): 0.3500
34.0171 (SSBMGGMNK) [Peptide 34.0171] | – | – | – | – | A*1101 binding (HLA-A11 (A*1101)): 1.1000; A*0301 binding (HLA-A3.2 (A*0301)): 0.5440
34.0232 (RVCACPGRDK) [Peptide 34.0232] | – | – | – | – | A*1101 binding (HLA-A11 (A*1101)): 0.0250; A*0301 binding (HLA-A3.2 (A*0301)): 0.0190
34.0323 (RVCACPGRDRR) [Peptide 34.0323] | – | – | – | – | A*1101 binding (HLA-A11 (A*1101)): 0.0290; A*0301 binding (HLA-A3.2 (A*0301)): 0.0290
CC[C@H](C)[C@H](NC(=O)[C@H](CS)NC(=O)[C@H](CCCNC(=N)N)NC(=O)[C@@H](NC(=O)[C@@H](N)CC(C)C)[C@@H](C)CC)C(=O)N[C@H](C(=O)N[C@@H](CS)C(=O)N[C@@H](CCC(N)=O)C(=O)N[C@@H](CCCCN)C(=O)O)[C@@H](C)CC [Peptide 88.0298] (H-LIRCIICQK-OH) | 252 nM | 834 nM | 639 nM | 445 nM | –
AAEGVGAVSR [Peptide 9017.0188] | 992 nM | 4120 nM | 2680 nM | 16000 nM | –
ALTALITPK [Peptide 9017.0099] | 16 nM | – | 439 nM | 17 nM | –
ALTALITPKK [Peptide 9017.0230] | 6.8 nM | > 20000 nM | 7410 nM | 44 nM | –
EVYDGREHSA | – | – | – | – | A11 (HLA-A11 (A*1101)): 0; A2.1 (HLA-A*0201 (HLA-A2.1)): 0; A3.2 (HLA-A3.2 (A*0301)): <0.0002
F119.01 (MSLQRQFLR) [Peptide F119.01] | – | – | – | – | A*1101 binding (HLA-A11 (A*1101)): 0.7200; A*0301 binding (HLA-A3.2 (A*0301)): 0.2000
F119.02 (LLGPGRPYR) [Peptide F119.02] | – | – | – | – | A*1101 binding (HLA-A11 (A*1101)): 0.0091; A*0301 binding (HLA-A3.2 (A*0301)): 0.0190
FAFTDLTIVY [Peptide 78.0103] | > 20000 nM | > 20000 nM | > 20000 nM | > 20000 nM | –
FLGALKSFLK [Peptide 88.0148] | 120 nM | – | 327 nM | 27 nM | –
FLIIVLVMIA | – | – | – | – | A11 (HLA-A11 (A*1101)): 0.0030; A2.1 (HLA-A*0201 (HLA-A2.1)): 0.0003; A3.2 (HLA-A3.2 (A*0301)): 0.0093
FTDLTIVYR [Peptide 78.0313] | 2660 nM | 585 nM | 602 nM | > 20000 nM | –
GLYYIHGNEK [Peptide 1589.40] | 18 nM | 4510 nM | 141 nM | 17 nM | –

Compound | IC50 (HLA-A11 (A*1101)) | IC50 (A*3301) | IC50 (A31 (A*3101)) | IC50 (HLA-A3.2 (A*0301)) | also measured
GVSIEWRQR [Peptide 9017.0087] | 1220 nM | 2090 nM | 335 nM | 13100 nM | –
ISKQPLPQTR [Peptide 9017.0207] | > 20000 nM | 2580 nM | 83 nM | > 20000 nM | –
IVFIEYRKIR [Peptide 9017.0245] | 1470 nM | 312 nM | 12 nM | 4370 nM | –
KQFLQGVPK [Peptide 88.0390] | 17 nM | 5180 nM | 44 nM | 32 nM | –
KQMSMSQWIK [Peptide 1587.09] | 17 nM | – | 50 nM | 49 nM | –
KSLFGMSLMK [Peptide 1587.13] | 1.5 nM | > 20000 nM | 271 nM | 4.4 nM | –
KVCSGVDYR [Peptide 1589.35] | 5170 nM | 5780 nM | – | > 20000 nM | –
LALTALITPK [Peptide 9017.0228] | 6.6 nM | > 20000 nM | 1730 nM | 88 nM | –
LQMALETLSK [Peptide 88.0214] | 22 nM | > 20000 nM | 10600 nM | 559 nM | –
LQQTSLEMWR [Peptide 88.0228] | 445 nM | > 20000 nM | – | 13100 nM | –
LVFGIDVKEA | – | – | – | – | A11 (HLA-A11 (A*1101)): 0; A2.1 (HLA-A*0201 (HLA-A2.1)): 0.0002; A3.2 (HLA-A3.2 (A*0301)): <0.0002
MLIQPPKLR [Peptide 88.0340] | – | 146 nM | 699 nM | 16200 nM | IC50 (A*6801): 25 nM
NTKATLLYK [Peptide 88.0385] | 109 nM | 168 nM | 3820 nM | 396 nM | –
NTNAGTDPR [Peptide 88.0372] | – | 418 nM | 7020 nM | 1120 nM | IC50 (A*6801): 50 nM
QLALEALNK [Peptide 88.0424] | 155 nM | > 20000 nM | > 20000 nM | 166 nM | –
QQRSLTEILK [Peptide 9012.0218] | 93 nM | > 20000 nM | – | 520 nM | –
